According to patent US20260184713A1, “KINASE INHIBITORS” (The United States of America, as represented by the …, priority 2022, published 2026):
Read-outs that look alike come from different tables or passages of the source.

Columns and labels:
[1] = molecular target: T1, ROCK2 (Homo sapiens, UniProt O75116); assay: HOTSPOT radiometric kinase assay; assay type: biochemical; conditions: 10 μM ATP
T1 construct: purchased Reaction Biology Corp

[2] = molecular target: T2, YSK1 (Homo sapiens, UniProt O00506); assay: HOTSPOT radiometric kinase assay; assay type: biochemical; conditions: 50 nM, 10 μM ATP
T2 construct: purchased Reaction Biology Corp

[3] = molecular target: T3, PKCη (Homo sapiens, UniProt P24723); assay: HOTSPOT radiometric kinase assay; assay type: biochemical
T3 construct: purchased Reaction Biology Corp

[4] = molecular target: T4, BMPR2 (Homo sapiens, UniProt Q13873); assay: HOTSPOT radiometric kinase assay; assay type: biochemical; conditions: 10 μM ATP
T4 construct: purchased Reaction Biology Corp

[5] = system: Luciferase; assay: luciferase assay without PKA (Luciferase Only); assay type: biochemical
Text: . Therefore, a competitive kinetic study was further conducted to investigate how 1 interacted with the PKA protein. […]. Thus, all the results supported that 1 was likely to function as an ATP-competitive inhibitor by direct interacting with the PKA catalytic unit (see FIGS. 2A-2B).

[6] = molecular target: T5, RSK2 (Homo sapiens, UniProt P51812); assay: HOTSPOT radiometric kinase assay; assay type: biochemical; conditions: 10 μM ATP
T5 construct: purchased Reaction Biology Corp

[7] = molecular target: AKT1 (Homo sapiens, UniProt P31749); assay: HOTSPOT radiometric kinase assay
[8] = molecular target: T6, CDK2 (Homo sapiens, UniProt P24941); assay: HOTSPOT radiometric kinase assay; assay type: biochemical; conditions: 10 μM ATP
T6 construct: purchased Reaction Biology Corp

[9] = molecular target: T7, LATS1 (Homo sapiens, UniProt O95835); assay: HOTSPOT radiometric kinase assay; assay type: biochemical; conditions: 10 μM ATP
T7 construct: purchased Reaction Biology Corp
T7 sequence (O95835 1-1130): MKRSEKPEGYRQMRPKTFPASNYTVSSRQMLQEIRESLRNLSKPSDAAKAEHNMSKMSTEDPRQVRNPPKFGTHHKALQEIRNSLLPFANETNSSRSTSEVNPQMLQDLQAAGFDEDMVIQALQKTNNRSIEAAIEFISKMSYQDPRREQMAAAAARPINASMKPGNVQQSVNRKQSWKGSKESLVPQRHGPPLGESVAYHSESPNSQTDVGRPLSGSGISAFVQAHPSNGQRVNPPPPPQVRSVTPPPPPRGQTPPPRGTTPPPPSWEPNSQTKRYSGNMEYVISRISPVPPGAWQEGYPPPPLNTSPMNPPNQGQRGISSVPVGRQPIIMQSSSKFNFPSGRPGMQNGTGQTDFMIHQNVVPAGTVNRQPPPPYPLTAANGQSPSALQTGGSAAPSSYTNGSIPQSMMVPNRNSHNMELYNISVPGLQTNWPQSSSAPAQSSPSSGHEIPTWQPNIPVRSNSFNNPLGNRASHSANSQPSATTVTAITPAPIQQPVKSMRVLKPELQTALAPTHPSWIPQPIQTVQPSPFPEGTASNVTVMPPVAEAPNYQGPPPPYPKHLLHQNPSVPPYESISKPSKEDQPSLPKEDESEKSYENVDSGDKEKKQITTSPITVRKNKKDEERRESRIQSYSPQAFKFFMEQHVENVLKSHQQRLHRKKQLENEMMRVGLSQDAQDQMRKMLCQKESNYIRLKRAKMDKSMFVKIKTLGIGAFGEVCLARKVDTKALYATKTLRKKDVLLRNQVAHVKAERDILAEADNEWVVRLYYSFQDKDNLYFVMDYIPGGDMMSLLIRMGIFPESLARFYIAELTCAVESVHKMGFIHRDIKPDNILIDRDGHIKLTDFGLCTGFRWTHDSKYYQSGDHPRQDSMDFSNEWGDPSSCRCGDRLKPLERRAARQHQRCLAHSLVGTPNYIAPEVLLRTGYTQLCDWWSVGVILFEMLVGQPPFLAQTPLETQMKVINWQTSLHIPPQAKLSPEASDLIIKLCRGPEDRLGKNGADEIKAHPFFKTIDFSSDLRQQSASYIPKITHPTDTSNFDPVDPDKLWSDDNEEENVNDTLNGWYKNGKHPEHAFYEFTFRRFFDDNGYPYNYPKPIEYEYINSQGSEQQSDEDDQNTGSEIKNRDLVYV

[10] = molecular target: T8, PKCδ (Homo sapiens, UniProt Q05655); assay: HOTSPOT radiometric kinase assay; assay type: biochemical
T8 construct: purchased Reaction Biology Corp

[11] = molecular target: T9, smMLCK (Homo sapiens, UniProt Q15746); assay: HOTSPOT radiometric kinase assay; assay type: biochemical; conditions: 10 μM ATP
T9 construct: purchased Reaction Biology Corp

[12] = molecular target: T10, RSK1 (Homo sapiens, UniProt Q15418); assay: HOTSPOT radiometric kinase assay; assay type: biochemical; conditions: 10 μM ATP
T10 construct: purchased Reaction Biology Corp

[13] = molecular target: T11, P70S6K (Homo sapiens, UniProt P23443); assay: HOTSPOT radiometric kinase assay; assay type: biochemical; conditions: 10 μM ATP
T11 construct: purchased Reaction Biology Corp

[14] = molecular target: T12, PKN3 (Homo sapiens, UniProt Q6P5Z2); assay: HOTSPOT radiometric kinase assay; assay type: biochemical; conditions: 10 μM ATP
T12 construct: purchased Reaction Biology Corp

[15] = molecular target: FLT1/VEGFR1 (Homo sapiens, UniProt P17948); assay: HOTSPOT radiometric kinase assay
[16] = molecular target: T13, BRAF (Homo sapiens, UniProt P15056); assay: HOTSPOT radiometric kinase assay; assay type: biochemical; conditions: 10 μM ATP
T13 construct: purchased Reaction Biology Corp

[17] = molecular target: T14, RAF1 (Homo sapiens, UniProt P04049, Y340D/Y341D); assay: HOTSPOT radiometric kinase assay; assay type: biochemical; conditions: 10 μM ATP
T14 construct: purchased Reaction Biology Corp

[18] = molecular target: T15, ROCK1 (Homo sapiens, UniProt Q13464); assay: HOTSPOT radiometric kinase assay; assay type: biochemical; conditions: 10 μM ATP
T15 construct: purchased Reaction Biology Corp

[19] = molecular target: T16, DYRK1A (Homo sapiens, UniProt Q13627); assay: HOTSPOT radiometric kinase assay; assay type: biochemical
T16 construct: purchased Reaction Biology Corp

T8 sequence (Q05655 whole entry): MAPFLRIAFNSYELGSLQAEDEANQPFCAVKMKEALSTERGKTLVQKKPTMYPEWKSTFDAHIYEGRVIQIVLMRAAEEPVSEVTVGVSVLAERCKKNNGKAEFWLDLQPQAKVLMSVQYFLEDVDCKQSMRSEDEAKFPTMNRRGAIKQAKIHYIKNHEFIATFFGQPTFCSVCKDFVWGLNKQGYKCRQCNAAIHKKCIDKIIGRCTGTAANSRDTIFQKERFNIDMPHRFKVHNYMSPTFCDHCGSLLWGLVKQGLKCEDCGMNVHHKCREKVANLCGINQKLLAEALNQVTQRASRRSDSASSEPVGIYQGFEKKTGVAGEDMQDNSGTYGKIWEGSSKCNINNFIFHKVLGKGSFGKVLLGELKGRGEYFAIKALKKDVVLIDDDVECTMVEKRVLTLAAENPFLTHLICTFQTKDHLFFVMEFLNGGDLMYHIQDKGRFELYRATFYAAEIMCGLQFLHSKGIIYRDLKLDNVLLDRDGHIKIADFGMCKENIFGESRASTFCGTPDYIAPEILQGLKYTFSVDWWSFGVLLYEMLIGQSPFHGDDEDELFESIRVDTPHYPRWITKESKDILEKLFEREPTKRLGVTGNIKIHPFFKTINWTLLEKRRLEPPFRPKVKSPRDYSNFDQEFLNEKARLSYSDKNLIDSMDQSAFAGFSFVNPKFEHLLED
AKT1, sequence (P31749 whole entry): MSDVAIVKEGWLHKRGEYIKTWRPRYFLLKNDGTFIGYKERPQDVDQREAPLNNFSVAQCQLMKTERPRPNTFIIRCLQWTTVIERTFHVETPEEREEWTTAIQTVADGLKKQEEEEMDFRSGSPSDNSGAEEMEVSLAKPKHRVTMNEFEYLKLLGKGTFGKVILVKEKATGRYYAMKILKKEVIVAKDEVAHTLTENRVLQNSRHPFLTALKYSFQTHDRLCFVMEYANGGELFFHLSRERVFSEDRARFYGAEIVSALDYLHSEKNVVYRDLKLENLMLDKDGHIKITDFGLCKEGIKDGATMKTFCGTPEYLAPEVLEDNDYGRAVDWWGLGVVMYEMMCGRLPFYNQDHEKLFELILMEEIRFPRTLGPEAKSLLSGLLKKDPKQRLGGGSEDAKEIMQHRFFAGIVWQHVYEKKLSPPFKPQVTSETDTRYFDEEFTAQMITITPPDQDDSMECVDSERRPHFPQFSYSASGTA
T3 sequence (P24723 whole entry): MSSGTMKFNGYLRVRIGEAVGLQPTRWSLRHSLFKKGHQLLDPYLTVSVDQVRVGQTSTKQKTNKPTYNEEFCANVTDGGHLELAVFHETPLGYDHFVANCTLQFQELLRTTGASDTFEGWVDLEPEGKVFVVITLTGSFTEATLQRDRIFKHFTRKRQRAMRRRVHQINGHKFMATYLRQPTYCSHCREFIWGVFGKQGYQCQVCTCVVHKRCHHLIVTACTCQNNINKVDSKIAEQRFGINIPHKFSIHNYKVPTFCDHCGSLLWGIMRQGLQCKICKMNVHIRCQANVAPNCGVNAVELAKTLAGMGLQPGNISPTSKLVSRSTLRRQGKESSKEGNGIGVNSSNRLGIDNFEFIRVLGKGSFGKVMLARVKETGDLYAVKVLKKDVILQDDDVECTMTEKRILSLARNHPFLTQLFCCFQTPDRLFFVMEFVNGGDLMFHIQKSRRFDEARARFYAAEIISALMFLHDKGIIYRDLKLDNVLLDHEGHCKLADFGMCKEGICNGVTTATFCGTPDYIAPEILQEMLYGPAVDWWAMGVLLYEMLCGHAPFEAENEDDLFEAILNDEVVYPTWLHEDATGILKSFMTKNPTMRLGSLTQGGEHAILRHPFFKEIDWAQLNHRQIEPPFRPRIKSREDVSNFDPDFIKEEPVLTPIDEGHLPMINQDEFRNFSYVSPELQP
T4 sequence (Q13873 27-1038): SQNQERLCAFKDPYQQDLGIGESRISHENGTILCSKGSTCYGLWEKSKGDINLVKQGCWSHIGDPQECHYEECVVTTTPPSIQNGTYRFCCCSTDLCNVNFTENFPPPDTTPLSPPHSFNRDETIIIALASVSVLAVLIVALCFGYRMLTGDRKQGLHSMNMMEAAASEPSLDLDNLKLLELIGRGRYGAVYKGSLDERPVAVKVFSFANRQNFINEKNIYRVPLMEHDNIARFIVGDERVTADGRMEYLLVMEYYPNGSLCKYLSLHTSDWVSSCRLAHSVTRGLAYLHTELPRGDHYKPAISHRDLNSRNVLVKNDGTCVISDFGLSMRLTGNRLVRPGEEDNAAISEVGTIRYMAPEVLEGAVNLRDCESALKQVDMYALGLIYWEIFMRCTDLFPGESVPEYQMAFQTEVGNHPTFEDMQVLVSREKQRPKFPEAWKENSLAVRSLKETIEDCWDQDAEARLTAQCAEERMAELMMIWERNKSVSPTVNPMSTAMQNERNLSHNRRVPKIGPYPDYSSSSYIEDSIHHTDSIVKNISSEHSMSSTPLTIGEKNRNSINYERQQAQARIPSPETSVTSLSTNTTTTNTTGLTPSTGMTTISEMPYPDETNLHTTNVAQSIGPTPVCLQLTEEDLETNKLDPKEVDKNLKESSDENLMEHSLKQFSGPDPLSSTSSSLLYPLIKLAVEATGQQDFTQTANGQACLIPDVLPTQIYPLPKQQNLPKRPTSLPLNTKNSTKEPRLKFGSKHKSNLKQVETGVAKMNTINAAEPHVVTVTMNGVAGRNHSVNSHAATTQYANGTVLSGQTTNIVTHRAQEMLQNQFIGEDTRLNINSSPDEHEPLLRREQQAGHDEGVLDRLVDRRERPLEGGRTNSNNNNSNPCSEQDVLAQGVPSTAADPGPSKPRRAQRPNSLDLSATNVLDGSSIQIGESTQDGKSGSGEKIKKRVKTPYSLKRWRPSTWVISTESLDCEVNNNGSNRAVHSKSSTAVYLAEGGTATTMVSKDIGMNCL
FLT1/VEGFR1, sequence (P17948 27-1338): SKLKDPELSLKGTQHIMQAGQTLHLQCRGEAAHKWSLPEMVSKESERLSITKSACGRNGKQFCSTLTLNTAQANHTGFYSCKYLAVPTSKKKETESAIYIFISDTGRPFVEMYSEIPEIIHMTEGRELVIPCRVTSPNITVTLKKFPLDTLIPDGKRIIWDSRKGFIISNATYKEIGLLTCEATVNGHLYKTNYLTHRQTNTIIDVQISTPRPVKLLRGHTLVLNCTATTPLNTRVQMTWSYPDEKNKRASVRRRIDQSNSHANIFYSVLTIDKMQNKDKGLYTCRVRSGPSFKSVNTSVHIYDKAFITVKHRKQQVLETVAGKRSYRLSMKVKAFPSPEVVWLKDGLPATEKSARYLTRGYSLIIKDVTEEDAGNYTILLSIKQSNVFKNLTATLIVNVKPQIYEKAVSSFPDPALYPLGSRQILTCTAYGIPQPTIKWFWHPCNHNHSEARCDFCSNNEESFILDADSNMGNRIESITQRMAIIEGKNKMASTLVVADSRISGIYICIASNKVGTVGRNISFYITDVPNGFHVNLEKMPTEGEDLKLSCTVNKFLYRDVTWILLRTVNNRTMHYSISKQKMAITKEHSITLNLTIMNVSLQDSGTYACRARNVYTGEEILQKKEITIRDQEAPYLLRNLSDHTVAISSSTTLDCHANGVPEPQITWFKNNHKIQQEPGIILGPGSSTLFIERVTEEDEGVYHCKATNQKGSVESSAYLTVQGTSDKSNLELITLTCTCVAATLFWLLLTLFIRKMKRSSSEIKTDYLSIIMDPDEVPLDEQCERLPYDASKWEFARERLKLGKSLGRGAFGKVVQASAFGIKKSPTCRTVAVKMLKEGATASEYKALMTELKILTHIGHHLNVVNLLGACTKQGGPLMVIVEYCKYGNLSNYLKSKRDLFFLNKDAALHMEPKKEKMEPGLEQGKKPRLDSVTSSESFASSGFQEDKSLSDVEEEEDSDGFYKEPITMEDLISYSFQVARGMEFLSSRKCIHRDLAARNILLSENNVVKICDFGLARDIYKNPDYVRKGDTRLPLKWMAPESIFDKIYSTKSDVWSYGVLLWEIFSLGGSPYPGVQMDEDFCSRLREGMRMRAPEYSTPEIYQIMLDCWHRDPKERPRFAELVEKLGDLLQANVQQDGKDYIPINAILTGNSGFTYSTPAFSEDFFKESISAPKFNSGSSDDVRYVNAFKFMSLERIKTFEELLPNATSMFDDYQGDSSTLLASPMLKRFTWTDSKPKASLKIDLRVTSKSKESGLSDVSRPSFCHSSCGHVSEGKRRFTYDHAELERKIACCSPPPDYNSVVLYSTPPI
T13 sequence (P15056 whole entry): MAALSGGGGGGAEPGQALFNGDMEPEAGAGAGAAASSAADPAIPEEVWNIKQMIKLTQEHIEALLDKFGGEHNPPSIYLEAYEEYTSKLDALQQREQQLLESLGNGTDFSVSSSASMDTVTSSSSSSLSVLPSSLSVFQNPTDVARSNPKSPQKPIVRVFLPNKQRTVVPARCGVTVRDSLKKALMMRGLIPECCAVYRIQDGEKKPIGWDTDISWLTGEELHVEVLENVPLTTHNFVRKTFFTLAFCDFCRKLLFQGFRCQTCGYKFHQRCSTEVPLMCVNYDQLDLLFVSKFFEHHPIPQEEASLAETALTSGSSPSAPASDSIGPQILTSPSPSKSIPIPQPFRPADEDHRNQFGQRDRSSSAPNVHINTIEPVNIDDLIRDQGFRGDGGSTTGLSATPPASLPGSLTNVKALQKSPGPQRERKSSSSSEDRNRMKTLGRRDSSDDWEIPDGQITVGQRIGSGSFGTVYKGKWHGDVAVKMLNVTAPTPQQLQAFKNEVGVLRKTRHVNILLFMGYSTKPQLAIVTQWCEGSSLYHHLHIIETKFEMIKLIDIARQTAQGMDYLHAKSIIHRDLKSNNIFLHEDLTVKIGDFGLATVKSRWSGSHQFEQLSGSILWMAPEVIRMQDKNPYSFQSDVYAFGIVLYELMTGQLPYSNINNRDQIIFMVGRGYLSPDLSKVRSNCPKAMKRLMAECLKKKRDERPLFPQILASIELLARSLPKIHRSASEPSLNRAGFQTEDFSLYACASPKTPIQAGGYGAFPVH

Cn1cncc1C1=CN(c2ncnc3nc[nH]c23)CCS1 [Compound 1, Aplithianine A]
inhibition at 0.05 µM ([1]; 50 nM): 19.6%
inhibition at 2 µM ([1]; 2 μM): 93.3%
inhibition at 0.05 µM [2]: 13.5%
inhibition at 0.05 µM ([3]; 50 nM, 10 μM ATP): 15.8%
inhibition at 2 µM ([3]; 2 μM, 10 μM ATP): 83.6%
IC50 ([3]; 10 μM ATP, read-out: PKCη IC50): 202 nM
PKCeta Differential (as compared to PKG1a) ([3]; IC50 (kinase)/IC50 (PKG1a)): 16.08
IC50 ([3]; Table 4 dose-response, read-out: PKCeta IC50 Values): 183 nM
inhibition at 0.05 µM ([4]; 50 nM): 21.3%
inhibition at 2 µM ([4]; 2 μM): 74%
activity when PKA was absent in the assay [5]: no activity was observed
inhibition at 0.05 µM ([6]; 50 nM): 12.3%
inhibition at 2 µM ([6]; 2 μM): 66%
IC50 [7]: 43 to 189 nM
inhibition at 0.05 µM ([7]; read-out: AKT1 % inhibition): 25.1%
inhibition at 2 µM ([7]; read-out: AKT1 % inhibition): 83.7%
IC50 ([7]; read-out: AKT1 IC50, 10 μM ATP): 179 nM
inhibition at 0.05 µM ([8]; 50 nM): 12.6%
inhibition at 2 µM ([8]; 2 μM): 49.1%
inhibition at 0.05 µM ([9]; 50 nM): 35%
inhibition at 2 µM ([9]; 2 μM): 96.1%
inhibition at 0.05 µM ([10]; 50 nM, 10 μM ATP): 12.6%
inhibition at 2 µM ([10]; 2 μM, 10 μM ATP): 81.1%
IC50 ([10]; 10 μM ATP, read-out: PKCδ IC50): 184 nM
PKCd Differential (as compared to PKG1a) ([10]; IC50 (kinase)/IC50 (PKG1a)): 16.77
IC50 ([10]; Table 4 dose-response, read-out: PKCd IC50 Values): 191 nM
inhibition at 0.05 µM ([11]; 50 nM): 18.2%
inhibition at 2 µM ([11]; 2 μM): 91.1%
inhibition at 0.05 µM ([12]; 50 nM): 13%
inhibition at 2 µM ([12]; 2 μM): 82%
inhibition at 0.05 µM ([13]; 50 nM): 14%
inhibition at 2 µM ([13]; 2 μM): 87.3%
inhibition at 0.05 µM ([14]; 50 nM): 18.6%
inhibition at 2 µM ([14]; 2 μM): 80.4%
IC50 [15]: 18000 to 65000 nM
IC50 ([15]; read-out: FLT1/VEGFR1 IC50, 10 μM ATP): 18800 nM
inhibition at 0.05 µM ([16]; 50 nM): 12.9%
inhibition at 2 µM ([16]; 2 μM): 35.1%
inhibition at 0.05 µM ([17]; 50 nM): 21.6%
inhibition at 2 µM ([17]; 2 μM): 47%
inhibition at 0.05 µM ([18]; 50 nM): 27%
inhibition at 2 µM ([18]; 2 μM): 88.6%
inhibition at 0.05 µM ([19]; 50 nM, 10 μM ATP): 23.1%
inhibition at 2 µM ([19]; 2 μM, 10 μM ATP): 95.4%
IC50 ([19]; 10 μM ATP, read-out: DYRK1A IC50): 119 nM
DYRK1A Differential (as compared to PKG1a) ([19]; IC50 (kinase)/IC50 (PKG1a)): 10.01
IC50 ([19]; Table 4 dose-response, read-out: DYRK1A IC50 Values): 114 nM
